In patent US20260317327A1, “CRYSTRAL OF QUINOLINE-SUBSTITUTED COMPOUND” (TAIHO PHARMACEUTICAL CO., LTD., priority 2023, published 2026):

Tests used:
[1] = Solid stability test (closed system, storage at 60 °C or 80 °C, HPLC purity, crystal form, appearance); format: physicochemical; settings: for Change amount (purity) 2 weeks after / Purity 2 weeks after / Color tone change 2 weeks after / Change amount (purity) 4 weeks after / Purity 4 weeks after / Color tone change 4 weeks after: closed system; for Color tone change 2 weeks after / Color tone change 4 weeks after: visual; for Purity at the beginning: HPLC 220 nm
Procedure: A temperature influence was tested by using the type I crystal, solvate crystal type “b”, and amorphous solid of the compound (1) obtained in Example 1, Comparative Example 1, and Reference Example 1, respectively. An evaluation was performed by the following procedure. In addition, with regard to the appearances of the crystals and the amorphous solid, the states thereof before and after their storage were visually observed. • Storage condition: 60° C. or 80° C. (closed system) (HIFLEX (high-temperature storage machine manufactured by ETAC Engineering Co., Ltd.)) • Storage period: 2 weeks and 4 weeks • Storage amount: about 100 mg • Storage container: a glass bottle
A change in amount of related substances (amount of substances detected in addition to the compound (1)) was analyzed by HPLC in accordance with the following method. A product obtained as follows was used as a sample for analysis: about 1 mg of each sample was weighed as the compound (1); the sample was dissolved in 10 mL of a mixed liquid of acetonitrile and water (3:1 v/v); and 5 μL of the liquid was accurately weighed out.
The amount of the related substances in the sample solution was measured by HPLC analysis. The handling of each apparatus including data processing followed a method and a procedure instructed in the apparatus. • Column: InertSustain C18HP (4.6 mm×150 mm, 3 μm) manufactured by GL Sciences Inc. • UV detection: 220 nm • Column temperature: 40° C. • Flow rate: 1.0 mL/min • Sample cooler: 5° C. • Sample concentration: 0.1 mg/mL • Mobile phase A: 0.1% phosphoric acid • Mobile phase B: acetonitrile

[2] = Dynamic vapor sorption (DVS) test; format: physicochemical
Procedure: A vapor sorption test was performed by using each of the type I crystal, solvate crystal type “b”, and amorphous solid of the compound (1) obtained in Example 1, Comparative Example 1, and Reference Example 1, respectively. The vapor sorption test was performed in accordance with the following conditions. About 10 mg of a sample was loaded into a dedicated holder made of quartz, and the weights of the sample at respective humidities were continuously measured and recorded under the following conditions.

EGFR = settings: as disclosed in Patent Document 1 (WO 2015/025936 A1); cited from earlier work
[3] = Comparison of type I crystal with metastable crystal and hydrate crystal (hygroscopicity, storage stability; data not shown); format: physicochemical; settings: compared to metastable crystal and hydrate crystal
Description: In addition to Comparative Example 1, a metastable crystal and a hydrate crystal of the compound (1) were obtained and compared with the type I crystal obtained according to the method described in Example 1.

Row | SMILES | Change amount (purity) 2 weeks after ([1]; 60 °C) [%] | Purity 2 weeks after ([1]; 60 °C) [%] | Color tone change 2 weeks after ([1]; 60 °C) | Change amount (purity) 4 weeks after ([1]; 60 °C) [%] | Purity 4 weeks after ([1]; 60 °C) [%] | Color tone change 4 weeks after ([1]; 60 °C) | Change amount (purity) 2 weeks after ([1]; 80 °C) [%] | Purity 2 weeks after ([1]; 80 °C) [%] | Color tone change 2 weeks after ([1]; 80 °C) | Change amount (purity) 4 weeks after ([1]; 80 °C) [%] | Purity 4 weeks after ([1]; 80 °C) [%] | Color tone change 4 weeks after ([1]; 80 °C) | Purity at the beginning ([1]; storage at 60 °C series) [%] | Purity at the beginning ([1]; storage at 80 °C series) [%] | Weight increase ([2]; 95% RH, 25 °C) | other results
1 | C=CC(=O)N[C@H]1C=C(C)c2c(-c3cnc4ccccc4c3)c3c(N)ncnc3n2C1 [Solvate crystal type “b”, (S)—N-(4-amino-6-methyl-5-(quinolin-3-yl)-8,9-dihydropyrimido[5,4-b]indolizin-8-yl)acrylamide] | −10.60 | 88.16 | Absent | −11.55 | 87.21 | Absent | −14.49 | 84.57 | Absent | −15.38 | 83.38 | Absent | 98.76 | 98.76 | ≥ 5% | Weight increase profile (in words) ([2]; 5-95% RH, 25 °C): substantially linear weight increase starting from a low-humidity region
2 | C=CC(=O)N[C@H]1C=C(C)c2c(-c3cnc4ccccc4c3)c3c(N)ncnc3n2C1 [Amorphous solid, (S)—N-(4-amino-6-methyl-5-(quinolin-3-yl)-8,9-dihydropyrimido[5,4-b]indolizin-8-yl)acrylamide] | −0.66 | 98.09 | Absent | −0.85 | 97.90 | Absent | −6.38 | 92.37 | Coloring | −7.90 | 90.85 | Coloring | 98.75 | 98.75 | about 10% | Weight increase ([2]; 50% RH, 25 °C): ≥ 2%
3 | C=CC(=O)N[C@H]1C=C(C)c2c(-c3cnc4ccccc4c3)c3c(N)ncnc3n2C1 [compound (1), (S)—N-(4-amino-6-methyl-5-(quinolin-3-yl)-8,9-dihydropyrimido[5,4-b]indolizin-8-yl)acrylamide] |  |  |  |  |  |  |  |  |  |  |  |  |  |  |  | EGFR-inhibiting action (in words) (EGFR): excellent EGFR-inhibiting action
4 | C=CC(=O)N[C@H]1C=C(C)c2c(-c3cnc4ccccc4c3)c3c(N)ncnc3n2C1 [Type I crystal, (S)—N-(4-amino-6-methyl-5-(quinolin-3-yl)-8,9-dihydropyrimido[5,4-b]indolizin-8-yl)acrylamide] | 0.06 | 98.90 | Absent | 0.02 | 98.86 | Absent | 0.05 | 98.89 | Absent | 0.07 | 98.91 | Absent | 98.84 | 98.84 | 1.28% | Chemical purity on storage (in words) ([1]; 60 °C / 80 °C, 2 and 4 weeks): substantially remained unchanged; Overall stability of crystal (in words) ([1]; 60 °C / 80 °C, 2 and 4 weeks): extremely stable crystal; Amount of related substances on storage (in words) ([1]; 60 °C / 80 °C, 2 and 4 weeks, HPLC): substantially no increase in amount of related substances; Crystal form and color tone on storage (in words) ([1]; 60 °C / 80 °C, 2 and 4 weeks, compared to solvate crystal type “b” and amorphous solid): showed no changes; Hygroscopicity (in words) ([2]; compared to the solvate crystal type “b” and amorphous solid): less hygroscopic; Weight increase ([2]; up to 75% RH, 25 °C): less than 0.4%; Hygroscopicity, storage stability, etc. (in words) [3]: better properties in terms of hygroscopicity, storage stability, etc.
